Results: article PMC12114598, “Repositioning FDA-Approved Sulfonamide-Based Drugs as Potential Carbonic Anhydrase Inhibitors in Trypanosoma cruzi: Virtual Screening and In Vitro Studies” (Pharmaceuticals, 2025)

What was measured:
in vitro = assay type: cell-based; settings: mouse
Procedure: Cytotoxicity assays were performed using the methodology proposed by Domínguez-Diaz et al. on a mouse macrophage cell line (J774.2). Cells were cultured in LIT medium supplemented with 10% SFB, penicillin (100 U μg/mL), and streptomycin (100 U μg/mL) at 37 °C in a 5% CO2 atmosphere. The culture medium was replaced at 2–3 day intervals. To evaluate the cytotoxicity of the compounds, 50,000 cells/well were plated in a 96-well plate and allowed to adhere for 24 h at 37 °C. Subsequently, the compounds were added at concentrations of 0.8 to 100 μg/mL to obtain a final volume of 200 μL and incubated for […] with 5% CO2. DMSO 0.1% (maximum concentration used) was included as a negative control and the control drugs as positive ones. The metabolic activity of the cell was determined following the MTT method, the % cell viability was calculated, and the median lethal concentration (LC50) was determined by Probit analysis. Analyses were performed in triplicate, and the Selectivity Index (SI) for the three parasitic stages in the NINOA and A1 strains (CC50/IC50) was calculated.

α-TcCA = α-TcCA (Trypanosoma cruzi, UniProt Q4CVY4); test: CO2 hydrase stopped-flow assay, α-TcCA
Procedure: An Applied Photophysics stopped-flow instrument was used for assaying the CA-catalysed CO2 hydration activity [31]. […] The uncatalyzed rates were determined in the same manner and subtracted from the total observed rates. Stock solutions of inhibitor (0.1 mM) were prepared in distilled/deionized water, and dilutions up to 0.01 nM were performed thereafter with the assay buffer. Inhibitor and enzyme solutions were preincubated together for 15 min at room temperature before assaying to allow for the formation of the E–I complex. The inhibition constants were obtained by nonlinear least-squares methods using PRISM 3 and the Cheng–Prusoff equation and represent the mean from at least three different determinations.

[1] = system: T. cruzi amastigotes, A1 strain; test: Amastigote assay, A1 strain; assay type: cell-based; settings: Trypanosoma cruzi; in J774.2 macrophages, 48 h, MTT; ± SD; read-out: Amastigote (Ex Vivo) A1 IC50
Procedure: (§1) Amastigote susceptibility to reference drugs was evaluated in vitro. […] The lysis solution was then replaced with Schneider’s medium followed by incubation at 28 °C for another 4 to 5 days to allow the transformation of viable amastigotes and their subsequent proliferation. Then, MTT colorimetric assays were performed. Finally, the half maximal inhibitory concentration (IC50) was determined by probit analysis. All studies were approved by the Institutional Committee for Handling and Animal Care of the Facultad de Ciencias Quimicas de la Universidad Autonoma “Benito Juarez” de Oaxaca (Register FCQ-CIP-0209243, Approved 23 September 2024) and were carried out according to Mexican guidance (NOM-062-ZOO-1999).

hCA II = target: T1, hCA II (Homo sapiens, UniProt P00918); test: CO2 hydrase stopped-flow assay, hCA II; assay type: biochemical; settings: mean of three assays, errors ±5–10%
T1 construct: made in house
Procedure: (§2) An Applied Photophysics stopped-flow instrument was used for assaying the CA-catalysed CO2 hydration activity. […] The uncatalyzed rates were determined in the same manner and subtracted from the total observed rates. Stock solutions of inhibitor (0.1 mM) were prepared in distilled/deionized water, and dilutions up to 0.01 nM were performed thereafter with the assay buffer. Inhibitor and enzyme solutions were preincubated together for 15 min at room temperature before assaying to allow for the formation of the E–I complex. The inhibition constants were obtained by nonlinear least-squares methods using PRISM 3 and the Cheng–Prusoff equation and represent the mean from at least three different determinations. […] All hCA isoforms were recombinant ones obtained in-house, as reported earlier.

[2] = system: T. cruzi epimastigotes, NINOA strain; test: Trypanocidal activity, epimastigotes in vitro, NINOA strain; assay type: cell-based; settings: Trypanosoma cruzi; 48 h, resazurin; ± SD; read-out: Epimastigote (In Vitro) NINOA IC50
Description: (§3) The selected drugs were purchased from Sigma-Aldrich without further purification. For the in vitro evaluation, the methodology proposed by Domínguez-Diaz et al. 2021 [53] against epimastigotes of T. cruzi strains NINOA (MHOM/MX/1994/NINOA) and A1 for the evaluation of candidate compounds was used. Both strains were maintained in liver-infusion tryptose (LIT) medium supplemented with 10% fetal bovine serum (FBS) and 0.1% penicillin–streptomycin. These strains were maintained by transferring 1 × 10^6 parasites/mL to fresh medium once a week. […] All compounds were initially prepared at a concentration of 10 mg/mL using dimethyl sulfoxide (DMSO) as a diluent. Serial dilutions were then performed with LIT medium until concentrations of 100 to 0.46 μg/mL of each compound were obtained. Amounts of 1 × 10^6 T. cruzi epimastigotes were grown in each well and incubated for 48 h at 28 °C in a final volume of 200 μL. DMSO was included as a negative control, and reference drugs as positive controls. At the end of the incubation period, 20 μL of resazurin solution (2.5 mM) was added to each well and incubated for 3 h. All assays were performed in triplicate, and the IC50 value was determined by probit analysis.

[3] = system: T. cruzi blood trypomastigotes, A1 strain; test: Trypanocidal activity, blood trypomastigotes ex vivo, A1 strain; assay type: cell-based; settings: Trypanosoma cruzi; 24 h at 4 °C; ± SD; read-out: Trypomastigote (Ex Vivo) A1 IC50
Procedure: (§4) Ex vivo evaluation of the trypanocidal activity of the tested compounds was conducted according to previously established protocols. Blood was collected via intracardiac puncture from mice infected with T. cruzi NINOA and A1 strains and diluted in phosphate-buffered saline (PBS, pH 7.2) to achieve a final concentration of 2 × 10^6 blood trypomastigotes/mL. […] The plates were incubated at 4 °C for 24 h. […] Following incubation, live parasites were quantified using a Neubauer chamber, and the half-maximal inhibitory concentration (IC50) was determined by probit analysis. All assays were performed in three independent experiments, each conducted in triplicate.

hCA I = target: T2, hCA I (Homo sapiens, UniProt P00915); test: CO2 hydrase stopped-flow assay, hCA I; assay type: biochemical; settings: mean of three assays, errors ±5–10%
T2 construct: made in house
Procedure: as §2

[4] = system: T. cruzi amastigotes, NINOA strain; test: Amastigote assay, NINOA strain; assay type: cell-based; settings: Trypanosoma cruzi; in J774.2 macrophages, 48 h, MTT; ± SD; read-out: Amastigote (Ex Vivo) NINOA IC50
Procedure: as §1

[5] = system: T. cruzi epimastigotes, A1 strain; test: Trypanocidal activity, epimastigotes in vitro, A1 strain; assay type: cell-based; settings: Trypanosoma cruzi; 48 h, resazurin; ± SD; read-out: Epimastigote (In Vitro) A1 IC50
Description: as §3

[6] = system: T. cruzi blood trypomastigotes, NINOA strain; test: Trypanocidal activity, blood trypomastigotes ex vivo, NINOA strain; assay type: cell-based; settings: Trypanosoma cruzi; 24 h at 4 °C; ± SD; read-out: Trypomastigote (Ex Vivo) NINOA IC50
Procedure: as §4

T. cruzi epimastigotes = system: T. cruzi epimastigotes; parameters: method as in PMID 32560043; settings: in vitro epimastigote model; cited from earlier work

T2 sequence (P00915 whole entry): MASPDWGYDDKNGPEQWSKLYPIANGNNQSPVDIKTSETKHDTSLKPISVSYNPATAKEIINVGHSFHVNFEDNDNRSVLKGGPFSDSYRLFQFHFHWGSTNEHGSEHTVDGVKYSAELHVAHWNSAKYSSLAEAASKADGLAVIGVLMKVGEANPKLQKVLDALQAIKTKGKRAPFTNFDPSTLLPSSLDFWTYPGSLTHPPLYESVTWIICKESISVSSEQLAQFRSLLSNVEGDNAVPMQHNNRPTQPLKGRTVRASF
Sequence of α-TcCA (Q4CVY4 entry or part of it): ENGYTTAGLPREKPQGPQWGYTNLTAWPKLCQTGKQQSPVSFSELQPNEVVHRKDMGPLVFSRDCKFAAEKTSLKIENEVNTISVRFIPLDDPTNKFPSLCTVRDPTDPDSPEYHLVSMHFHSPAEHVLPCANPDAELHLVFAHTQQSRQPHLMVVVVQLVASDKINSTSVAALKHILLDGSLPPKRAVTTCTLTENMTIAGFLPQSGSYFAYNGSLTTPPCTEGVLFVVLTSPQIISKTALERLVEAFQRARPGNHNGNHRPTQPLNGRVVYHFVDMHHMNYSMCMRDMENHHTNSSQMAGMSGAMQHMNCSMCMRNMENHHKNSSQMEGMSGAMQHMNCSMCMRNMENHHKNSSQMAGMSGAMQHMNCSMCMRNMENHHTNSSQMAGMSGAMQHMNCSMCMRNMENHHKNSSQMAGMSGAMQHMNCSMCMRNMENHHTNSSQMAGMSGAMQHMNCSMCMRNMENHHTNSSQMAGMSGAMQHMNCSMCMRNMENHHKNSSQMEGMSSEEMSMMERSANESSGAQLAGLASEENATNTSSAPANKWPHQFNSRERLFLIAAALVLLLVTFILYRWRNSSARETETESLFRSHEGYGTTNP

With `CC(=O)Nc1nnc(S(N)(=O)=O)s1` [Aaz, acetazolamide] the CC50 at 48 h (in vitro) was 12.6 ± 4.7 µM.
With `CC(=O)c1ccc(S(=O)(=O)NC(=O)NC2CCCCC2)cc1` [Ace, acetohexamide] the Ki (α-TcCA) was 5.6 µM, the IC50 [1] was > 200 µM and the Ki (hCA II) was 2.9 µM. For the same compound, the IC50 [2] was 6.5 ± 2.1 µM, the IC50 [3] was > 200 µM and the Ki (hCA I) was 17.3 µM. For the same compound, the CC50 at 48 h (in vitro) was > 200 µM, the IC50 [4] was 46 ± 0.6 µM and the IC50 [5] was 52.9 ± 2.7 µM. For the same compound, the IC50 [6] was 46.5 ± 0.1 µM.
In the case of `O=C(Cn1ccnc1[N+](=O)[O-])NCc1ccccc1` [Bzn, Benznidazole], the IC50 [2] is reported as 30.3 ± 0.03 µM, the IC50 [3] is reported as 145.3 ± 0.2 µM and the IC50 [5] is reported as 19.3 ± 0.08 µM. The IC50 [6] was 167.1 ± 0.03 µM.
In the case of `Cc1ccc(S(=O)(=O)NC(=O)NN2CC3CCCC3C2)cc1` (stereo not shown) [Glic, gliclazide], the Ki (α-TcCA) is reported as > 100 µM, the IC50 [1] is reported as 12.3 ± 0.01 µM and the IC50 [2] is reported as > 200 µM. For the same compound, the IC50 [3] was > 200 µM, the Ki (hCA I) was > 100 µM and the CC50 at 48 h (in vitro) was > 200 µM. For the same compound, the IC50 [4] was > 200 µM, the IC50 [5] was 10.7 ± 1.5 µM and the IC50 [6] was 89.4 ± 0.1 µM.
Compound `CCC1=C(C)CN(C(=O)NCCc2ccc(S(=O)(=O)NC(=O)N[C@H]3CC[C@H](C)CC3)cc2)C1=O` [Glim, glimepiride] has a Ki (α-TcCA) of 35.7 µM, an IC50 [1] of 50.26 ± 0.01 µM and a Ki (hCA II) of 19.9 µM. For the same compound, the IC50 [2] was 70.2 ± 3.2 µM, the IC50 [3] was > 200 µM and the Ki (hCA I) was > 100 µM. For the same compound, the CC50 at 48 h (in vitro) was 14.2 ± 2.3 µM, the IC50 [4] was > 200 µM and the IC50 [5] was 37.6 ± 1.5 µM. The IC50 [6] was > 200 µM.
Work on `CC1CS(=O)(=O)CCN1/N=C/c1ccc([N+](=O)[O-])o1` (stereo not shown) [Nfx, Nifurtimox] yielded an IC50 [1] of 54.8 ± 0.01 µM, an IC50 [2] of 7.1 ± 0.1 µM and an IC50 [3] of 118.2 ± 0.02 µM. For the same compound, the IC50 [4] was 70.5 ± 0.6 µM, the IC50 [5] was 39.1 ± 0.07 µM and the IC50 [6] was 156 ± 0.1 µM.
In the case of `CCCCNC(=O)NS(=O)(=O)c1ccc(C)cc1` [Tol, tolbutamide], the Ki (α-TcCA) is reported as > 100 µM, the “KI TcCA” value (α-TcCA; mean of three assays, errors ±5–10%) is reported as “did not exhibit inhibitory activity” and the IC50 [1] is reported as 44.5 ± 0.01 µM. For the same compound, the Ki (hCA II) was > 100 µM, the IC50 [2] was 8.5 ± 1.4 µM and the IC50 [3] was 97.7 ± 0.1 µM. The Ki (hCA I) was > 100 µM, the CC50 at 48 h (in vitro) was > 200 µM and the IC50 [4] was 148.7 ± 0.01 µM. The IC50 [5] was > 200 µM and the IC50 [6] was 9.8 ± 0.1 µM.
For `Cc1cnc(C(=O)NCCc2ccc(S(=O)(=O)NC(=O)NC3CCCCC3)cc2)cn1` [glipizide], the IC50 (T. cruzi epimastigotes) is listed as 13.4 ± 6 µM.
